Literature values as cited in US20020032245A1, “Resinate composition” (priority 2000, published 2002).

For `COc1ccc2c(c1)c(CC(=O)O)c(C)n2C(=O)c1ccc(Cl)cc1` [indomethacin], the “solubility of indomethacin in water” value is listed as 14 ppm.
